The record followed here is patent US20080108600A1, “Polycyclic Pyridines as Potassium Ion Channel Modulators” (Icagen, Inc., priority 2004, published 2008).

Structures are written as SMILES. Values joined by “and” are separate entries in the source; they are usually repeats but may differ in a detail not shown here. Equal entries are not always repeated. Structures can show the parent of a compound that is named as a salt.

In the experiment the target is hSK2 (Homo sapiens, UniProt Q9H2S1). Description: 86Rb+ efflux assay for compound activity towards hSK channels. It counts as cell-based. As to conditions: 86Rb+ efflux stimulated with calcium ionophore; drug 0.01 to 30 μM; read-out: hSK2 Inhibitory Activity. On the procedure:
24.1 Assay for Compound Activity Towards hSK Channels
Cells expressing small conductance, calcium activated potassium channels, such as SK-like channels were loaded with ^86Rb^+ by culture in media containing ^86RbCl. Following loading, the culture media was removed and the cells were washed in EBSS to remove residual traces of ^86Rb^+. Cells were preincubated with the drug (0.01 to 30 μM in EBSS) and then ^86Rb^+ efflux was stimulated by exposing cells to EBSS solution supplemented with a calcium ionophore, such as ionomycin, in the continued presence of the drug. After a suitable efflux period, the EBSS/ionophore solution was removed from the cells and the ^86Rb^+ content was determined by Cherenkov counting (Wallac Trilux). Cells were then lysed with a SDS solution and the ^86Rb^+ content of the lysate was determined. Percent ^86Rb^+ efflux was calculated according to the following equation:
(^86Rb^+ content in EBSS/(86Rb^+ content in EBSS+^86Rb^+ content of the lysate))×100

With `COc1ccc(-c2ncc(Cl)s2)nc1Nc1ccc(N2CCCC2=O)cn1` [1-{6-[6-(5-Chloro-thiazol-2-yl)-3-methoxy-pyridin-2-ylamino]-pyridin-3-yl}-pyrrolidin-2-one], the IC50 was below 100 nM.

Turning to `CCOC(=O)CCc1ccc(Nc2cccc(-c3nccs3)n2)nc1` [3-[6-(6-Thiazol-2-yl-pyridin-2-ylamino)-pyridin-3-yl]-propionic acid ethyl ester], the IC50 was below 100 nM.

`c1ccc(CNCc2ccc(Nc3cccc(-c4nccs4)n3)nc2)cc1` [5-[(Benzylamino)methyl]-N-[6-(1,3-thiazol-2-yl)pyridin-2-yl]pyridin-2-amine dihydrochloride]: the IC50 lay in the range of 100 to 500 nM.

With `COC(=O)c1ccc(Nc2cccc(-n3cccn3)n2)nc1` [6-(6-Pyrazol-1-yl-pyridin-2-ylamino)-nicotinic acid methyl ester], the IC50 was in the range of 100 to 500 nM.

For `Cc1ccc(-c2cccc(-c3nc4ccc(Cl)cc4[nH]3)n2)nc1` [6′-(6-Chloro-1H-benzoimidazol-2-yl)-5-methyl-[2,2′]bipyridinyl], the IC50 is 100 to 500 nM.

In the case of `O=C1CCCCN1c1ccc(Nc2cccc(-n3cccn3)n2)nc1` [6′-(6-Pyrazol-1-yl-pyridin-2-ylamino)-3,4,5,6-tetrahydro-[1,3′]bipyridinyl-2-one], the IC50 was below 100 nM.

For `CCc1cnc(-c2cccc(Nc3ccc(N4CCCCC4=O)cn3)n2)s1` [6′-[6-(5-Ethyl-thiazol-2-yl)-pyridin-2-ylamino]-3,4,5,6-tetrahydro-[1,3′]bipyridinyl-2-one], the IC50 fell in the range of 100 to 500 nM.

With `COc1ccc(-c2cnccn2)nc1Nc1ccc(N2CCCCC2)cn1` [(3-Methoxy-6-pyrazin-2-yl-pyridin-2-yl)-(3,4,5,6-tetrahydro-2H-[1,3′]bipyridinyl-6′-yl)-amine], the IC50 was below 100 nM.

On to `COc1ccc(-c2cnccn2)nc1Nc1ccc(N2CCN(C)CC2)cn1` [(3-Methoxy-6-pyrazin-2-yl-pyridin-2-yl)-[5-(4-methyl-piperazin-1-yl)-pyridin-2-yl]-amine], for which the IC50 is below 100 nM.

`COc1ccc(-c2nccs2)nc1Nc1ccc(-c2ccccc2)cn1` [(3-Methoxy-6-thiazol-2-yl-pyridin-2-yl)-(5-phenyl-pyridin-2-yl)-amine]: the IC50 lay in the range of 100 to 500 nM.

Regarding `COc1ccc(-c2nccs2)nc1Nc1ccc(N2CCNC(C)C2)cn1` (centres unmarked) [(3-Methoxy-6-thiazol-2-yl-pyridin-2-yl)-[5-(3-methyl-piperazin-1-yl)-pyridin-2-yl]-amine], the IC50 was 100 to 500 nM.

As to `COc1ccc(-c2nccs2)nc1Nc1ccc(N2CCCN(C)CC2)cn1` [(3-Methoxy-6-thiazol-2-yl-pyridin-2-yl)-[5-(4-methyl-[1,4]diazepan-1-yl)-pyridin-2-yl]-amine], the IC50 lay within 100 to 500 nM.

For `COc1ccc(-c2nccs2)nc1Nc1ccccn1` [(3-Methoxy-6-thiazol-2-yl-pyridin-2-yl)-pyridin-2-yl-amine], the IC50 is below 100 nM.

As to `Brc1ccc(Nc2cccc(-n3cccn3)n2)nc1` [(5-Bromo-pyridin-2-yl)-(6-pyrazol-1-yl-pyridin-2-yl)-amine], the IC50 is below 100 nM.

For `Brc1ccc(Nc2cccc(-c3nccs3)n2)nc1` [(5-Bromo-pyridin-2-yl)-(6-thiazol-2-yl-pyridin-2-yl)-amine], the IC50 is below 100 nM.

For `c1cc(Nc2nnc(C3CC3)s2)nc(-c2nccs2)c1` [(5-Cyclopropyl-[1,3,4]thiadiazol-2-yl)-(6-thiazol-2-yl-pyridin-2-yl)-amine], the IC50 fell in the range of 100 to 500 nM.

For the molecule `CCc1ccc(Nc2cccc(-c3nccs3)n2)nc1` [(5-Ethyl-pyridin-2-yl)-(6-thiazol-2-yl-pyridin-2-yl)-amine], the IC50 was below 100 nM.

Consider `Cc1cnn(-c2cccc(Nc3ccc(F)cn3)n2)c1` [(5-Fluoro-pyridin-2-yl)-[6-(4-methyl-pyrazol-1-yl)-pyridin-2-yl]-amine], for which the IC50 was below 100 nM.

On to `c1cc(Nc2ccc(-c3ccco3)cn2)nc(-c2cnccn2)c1` [(5-Furan-2-yl-pyridin-2-yl)-(6-pyrazin-2-yl-pyridin-2-yl)-amine], for which the IC50 is below 100 nM.

For the molecule `c1cc(Nc2ccc(-c3ccco3)cn2)nc(-c2nccs2)c1` [(5-Furan-2-yl-pyridin-2-yl)-(6-thiazol-2-yl-pyridin-2-yl)-amine], the IC50 was below 100 nM.

With `C=C(C)c1ccc(Nc2cccc(-n3cc(C)cn3)n2)nc1` [(5-Isopropenyl-pyridin-2-yl)-[6-(4-methyl-pyrazol-1-yl)-pyridin-2-yl]-amine], the IC50 is below 100 nM.

Turning to `COc1ccc(-c2cnccn2)nc1Nc1ccc(C(C)C)cn1` [(5-Isopropyl-pyridin-2-yl)-(3-methoxy-6-pyrazin-2-yl-pyridin-2-yl)-amine], the IC50 fell in the range of 100 to 500 nM.

Consider `COc1ccc(-c2nccs2)nc1Nc1ccc(C(C)C)cn1` [(5-Isopropyl-pyridin-2-yl)-(3-methoxy-6-thiazol-2-yl-pyridin-2-yl)-amine], for which the IC50 is < 100 nM and 100 to 500 nM.

In the case of `COc1ccc(-c2ccccn2)nc1Nc1ccc(C(C)C)cn1` [(5-Isopropyl-pyridin-2-yl)-(5-methoxy-[2,2′]bipyridinyl-6-yl)-amine], the IC50 is below 100 nM.

For `Cc1cnn(-c2cccc(Nc3ccc(C(C)C)cn3)n2)c1` [(5-Isopropyl-pyridin-2-yl)-[6-(4-methyl-pyrazol-1-yl)-pyridin-2-yl]-amine], the IC50 was below 100 nM.

In the case of `COc1ccc(-c2ccccn2)nc1Nc1ccc(N2CCCCC2)cn1` [(5-Methoxy-[2,2′]bipyridinyl-6-yl)-(3,4,5,6-tetrahydro-2H-[1,3′]bipyridinyl-6′-yl)-amine], the IC50 is below 100 nM.

On to `COc1ccc(-c2ccccn2)nc1Nc1ccc(N2CCN(C)CC2)cn1` [(5-Methoxy-[2,2′]bipyridinyl-6-yl)-[5-(4-methyl-piperazin-1-yl)-pyridin-2-yl]-amine], for which the IC50 is below 100 nM.

For `COc1ccc(Nc2cccc(-n3cc(C)cn3)n2)nc1` [(5-Methoxy-pyridin-2-yl)-[6-(4-methyl-pyrazol-1-yl)-pyridin-2-yl]-amine], the IC50 is below 100 nM.

Turning to `c1ccc(-c2cc(Nc3cccc(-c4nccs4)n3)[nH]n2)cc1` [(5-Phenyl-2H-pyrazol-3-yl)-(6-thiazol-2-yl-pyridin-2-yl)-amine], the IC50 is below 100 nM.

On to `CC(C)(C)c1ccc(Nc2cccc(-c3nccs3)n2)nc1` [(5-tert-Butyl-pyridin-2-yl)-(6-thiazol-2-yl-pyridin-2-yl)-amine], for which the IC50 fell in the range of 100 to 500 nM.

For the molecule `Fc1cccc(Nc2cccc(-c3nccs3)n2)n1` [(6-Fluoro-pyridin-2-yl)-(6-thiazol-2-yl-pyridin-2-yl)-amine], the IC50 lay within 500 to 1000 nM.

Take `c1cc(Nc2cc3ccccc3cn2)nc(-c2nccs2)c1` [Isoquinolin-3-yl-(6-thiazol-2-yl-pyridin-2-yl)-amine]: the IC50 is below 100 nM.

In the case of `COc1ccc(-c2nccs2)nc1Nc1ccc(N(C)C2CCN(C)C2)cn1` (centres unmarked) [N^2-(3-Methoxy-6-thiazol-2-yl-pyridin-2-yl)-N^5-methyl-N^5-(1-methyl-pyrrolidin-3-yl)-pyridine-2,5-diamine], the IC50 was 100 to 500 nM.

With `COCCN(C)c1ccc(Nc2nc(-c3ncc(Cl)s3)ccc2OC)nc1` [N^2-[6-(5-Chloro-thiazol-2-yl)-3-methoxy-pyridin-2-yl]-N^5-(2-methoxy-ethyl)-N^5-methyl-pyridine-2,5-diamine], the IC50 was below 100 nM.

As to `COCCN(C)c1ccc(Nc2cccc(-c3ncc(Cl)s3)n2)nc1` [N^2-[6-(5-Chloro-thiazol-2-yl)-pyridin-2-yl]-N^5-(2-methoxy-ethyl)-N^5-methyl-pyridine-2,5-diamine], the IC50 is below 100 nM.

As to `COc1ccc(-c2nccs2)nc1Nc1ccc(NC2CN3CCC2CC3)cn1` (centres unmarked) [N^5-(1-Aza-bicyclo[2.2.2]oct-3-yl)-N^2-(3-methoxy-6-thiazol-2-yl-pyridin-2-yl)-pyridine-2,5-diamine], the IC50 was 100 to 500 nM.

As for `COc1ccc(-c2nccs2)nc1Nc1ccc(-c2ccccn2)cn1` [[2,3′]Bipyridinyl-6′-yl-(3-methoxy-6-thiazol-2-yl-pyridin-2-yl)-amine], the IC50 is below 100 nM.

On to `c1cncc(-c2ccc(Nc3cccc(-c4cnccn4)n3)nc2)c1` [[3,3′]Bipyridinyl-6-yl-(6-pyrazin-2-yl-pyridin-2-yl)-amine], for which the IC50 is below 100 nM.

Regarding `COc1ccccc1-c1ccc(Nc2cccc(-n3cc(C)cn3)n2)nc1` [[5-(2-Methoxy-phenyl)-pyridin-2-yl]-[6-(4-methyl-pyrazol-1-yl)-pyridin-2-yl]-amine], the IC50 is below 100 nM.

With `c1cc(Nc2ccc(CN3CCc4ccccc4C3)cn2)nc(-c2nccs2)c1` [[5-(3,4-Dihydro-1H-isoquinolin-2-ylmethyl)-pyridin-2-yl]-(6-thiazol-2-yl-pyridin-2-yl)-amine], the IC50 is below 100 nM.

In the case of `CN1CCN(c2ccc(Nc3cccc(-n4cccn4)n3)nc2)CC1` [[5-(4-Methyl-piperazin-1-yl)-pyridin-2-yl]-(6-pyrazol-1-yl-pyridin-2-yl)-amine], the IC50 lay within 500 to 1000 nM.

As to `Cc1ccc(-c2ccc(Nc3cccc(-c4nccs4)n3)nc2)o1` [[5-(5-Methyl-furan-2-yl)-pyridin-2-yl]-(6-thiazol-2-yl-pyridin-2-yl)-amine], the IC50 was below 100 nM.

For the molecule `Cc1cnn(-c2cccc(Nc3ccc(N4CCC(C)CC4)cn3)n2)c1` [[6-(4-Methyl-pyrazol-1-yl)-pyridin-2-yl]-(4-methyl-3,4,5,6-tetrahydro-2H-[1,3′]bipyridinyl-6′-yl)-amine], the IC50 was 100 to 500 nM.

`COc1ccc(-c2ncc(Cl)s2)nc1Nc1ccc(N2CCCCC2)cn1` [[6-(5-Chloro-thiazol-2-yl)-3-methoxy-pyridin-2-yl]-(3,4,5,6-tetrahydro-2H-[1,3′]bipyridinyl-6′-yl)-amine]: the IC50 is 100 to 500 nM.
